For 1 compound, inhibition results are on record in PMC6934184, “Selective DNA-PKcs inhibition extends the therapeutic index of localized radiotherapy and chemotherapy” (The Journal of Clinical Investigation, 2019).

SMILES strings stand for the structures.

The target in this experiment is T1, MAPKAPK2 (Homo sapiens, UniProt P49137).
T1 construct: purchased Thermo Fisher Scientific (Life Technologies) SelectScreen
Description: SelectScreen Z'LYTE. It is filed as biochemical. The procedure, abridged:
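Percent values come from Thermo SelectScreen profiling of NU5455, combining activity and binding assays. CSF1R was run in Z'LYTE format at Km app ATP, and CAMK1 in Adapta format with ATP listed at 10.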

A word on the inhibition: it is the drop in the measured response relative to a control, in per cent.

T1 sequence (P49137 whole entry): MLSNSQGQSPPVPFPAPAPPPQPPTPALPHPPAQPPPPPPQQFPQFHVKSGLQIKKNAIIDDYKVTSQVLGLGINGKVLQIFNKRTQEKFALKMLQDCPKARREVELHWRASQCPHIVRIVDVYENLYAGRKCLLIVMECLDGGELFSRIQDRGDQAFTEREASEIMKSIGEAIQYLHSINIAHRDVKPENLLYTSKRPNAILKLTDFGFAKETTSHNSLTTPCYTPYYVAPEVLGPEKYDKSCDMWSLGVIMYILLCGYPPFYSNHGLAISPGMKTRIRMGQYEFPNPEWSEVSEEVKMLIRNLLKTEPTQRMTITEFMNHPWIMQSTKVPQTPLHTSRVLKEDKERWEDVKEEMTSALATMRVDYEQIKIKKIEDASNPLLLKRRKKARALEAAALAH

Consider `CN(C(=O)CN1CCOCC1)c1ccc2sc3c(-c4cccc5c(=O)cc(N6CC7CCC(C6)O7)oc45)cccc3c2c1` [NU5455], for which the inhibition at 1 µM was -3.1%.
